Patent US8697641B2, “4-amino-4-oxobutanoyl peptide cyclic analogues, inhibitors of viral replication” (Achillion Pharmaceuticals, Inc., priority 2008, dated 2014)

Test system: Hepatitis C replicon
Experiment: HCV replicon assay (NPT ELISA readout) in Huh-7 replicon-containing cells
Assay type: cell-based, Hepatitis C virus
Conditions: HCV replicon in Huh-7 cells, three days incubation
Procedure: Compounds claimed herein are tested for the ability to inhibit viral replication of the Hepatitis C replicon in cultured cells in which the HCV replicon construct has been incorporated. The HCV replicon system was described by Bartenschlager, et. al (Science, 285, pp. 110-113 (1999)). The replicon system is predictive of in vivo anti-HCV activity; compounds that are active in humans uniformly evidence activity in the replicon assay.
In this assay HCV replicon containing cells are treated with different concentrations of the test compound to ascertain the ability of the test compound to suppress replication of the HCV replicon. As a positive control, HCV replicon-containing cells are treated with different concentrations of interferon alpha, a known inhibitor of HCV replication. The replicon assay system includes Neomycin Phosphotransferase (NPT) as a component of the replicon itself in order to detect the transcription of replicon gene products in the host cell. Cells in which the HCV replicon is actively replicating have high levels of NPT; the level of NPT is proportional to HCV replication. […] The NPT level of each sample is measured using a captured ELISA.
A protocol for testing compounds for the ability to inhibit viral replication of the Hepatitis C replicon cultured cells in which the replicon construct has been incorporated, follows.
The HCV replicon contains, 5′-3′, the HCV-IRES, the neomycin phosphotransferase (neo) gene, the IRES of encephalomyocarditis virus, which directs translation of HCV sequences NS3 to NS5B, and the 3′-NTR. The sequence of the HCV replicon has been deposited in GenBank (Accession no. AJ242652).
The replicon is transfected into Huh-7 cells using standard methods such as electroporation.
The equipment and materials include, but are not limited to, Huh-7 HCV replicon-containing cells, maintenance media (DMEM (Dulbecco's modified Eagle media) supplemented with 10% FBS, L-glutamine, non-essential amino acids, penicillin (100 units/ml), streptomycin (100 micrograms/ml), and 500 micrograms/ml of Geneticin (G418), screening media (DMEM supplemented with 10% FBS, L-glutamine, non-essential amino acids, penicillin (100 units/ml) and streptomycin (100 micrograms/ml)), 96 well tissue culture plates (flat bottom), 96 well plates (U bottom for drug dilution), Interferon alpha for positive control, fixation reagent (such as methanol:acetone), primary antibody (rabbit anti-NPTII), secondary antibody: Eu-N1 l, and enhancement solution.
The cells are then seeded onto 96-well plates at a density of 6000-7500 cells/100 microliters/well (6-7.5×10^5 cells/10 ml/plate). The plates are then incubated at 37° C. in a 5% CO2 incubator.
HCV replicon-containing cells are rinsed with once PBS once; 2 mls of trypsin are then added. Cells are incubated at 37° C. in a 5% CO2 incubator for 3-5 minutes. 10 mls of complete medium is added to stop the reaction. Cells are blown gently, put into a 15 ml tube, and spun at 1200 rpm for four minutes. The trypsin/medium solution is removed and 5 mls of medium (500 ml DMEM (high glucose)) from BRL catalog #12430-054; 50 mls 10% FBS, 5% Geneticin G418 (50 mg/ml, BRL catalog #10131-035), 5 ml MEM non-essential amino acids (100×BRL #11140-050) and 5 ml pen-strep (BRL #15140-148) is added. The cells and media are mixed carefully
Cells are plated with screening medium (500 ml DMEM (BRL #21063-029), 50 ml FBS (BRL #10082-147) and 5 ml MEM non-essential amino acid (BRL #11140-050) at 6000-7500 fcells/100 μl/well of 96 well plate (6-7.5×10^5 cells/10 ml/plate). Plates are placed into 37° C. 5% CO2 incubator overnight.
The following morning, drugs (test compounds or interferon alpha) are diluted in 96 well U bottom plates with media or DMSO/media, depending on the final concentration chosen for screening. Generally for 6 concentrations of each test compounds ranging from 10 micromolar to 0.03 micromolar are applied. […]

`CCOC(=O)C12CC1/C=C\CCCCC[C@@H](CC(=O)N1CCCCC1)C(=O)N1C[C@H](Oc3cc(-c4ccccc4)nc4cc(OC)ccc34)C[C@H]1C(=O)N2` (stereo partly drawn) [Compound 42, (2R,6S,16aS,Z)-ethyl 2-(7-methoxy-2-phenylquinolin-4-yloxy)-5,16-dioxo-6-(2-oxo-2-(piperidin-1-yl)ethyl)-1,2,3,5,6,7,8,9,10,11, 13a,14,14a,15,16,16a-hexadecahydrocyclopropa [e]pyrrolo[1,2-a][1,4] diazacyclopentadecine-14a-carboxylate] showed an EC50 (Hepatitis C virus, 72 h) of 1000 to 10000 nM.
With `COc1ccc2c(O[C@@H]3C[C@H]4C(=O)NC5(C(=O)O)CC5/C=C\CCCCC[C@@H](CC(=O)N5CCCCC5)C(=O)N4C3)cc(-c3ccccc3)nc2c1` (stereo partly drawn) [Compound 43, (2R,6S,16aS,Z)-2-(7-methoxy-2-phenylquinolin-4-yloxy)-5,16-dioxo-6-(2-oxo-2-(piperidin-1-yl)ethyl)-1,2,3,5,6,7,8,9,10,11, 13a,14,14a,15,16,16a-hexadecahydrocyclopropa [e]pyrrolo[1,2-a][1,4] diazacyclopentadecine-14a-carboxylic acid] the EC50 (Hepatitis C virus, 72 h) was 1000 to 10000 nM.
Molecule `COc1ccc2c(O[C@@H]3C[C@H]4C(=O)N[C@]5(C(=O)O)C[C@H]5/C=C\CCCCC[C@H](CC(=O)N5CCCCC5)C(=O)N4C3)cc(-c3ccccc3)nc2c1` [Compound 44, (2R,6R,13aS,14aR, 16aS,Z)-2-(7-methoxy-2-phenylquinolin-4-yloxy)-5,16-dioxo-6-(2-oxo-2-(piperidin-1-yl)ethyl)-1,2,3,5,6,7,8,9,10,11, 13a,14,14a,15,16,16a-hexadecahydrocyclopropa [e]pyrrolo[1,2-a][1,4] diazacyclopentadecine-14a-carboxylic acid] has an EC50 (Hepatitis C virus, 72 h) of over 10000 nM.
For `CCOC(=O)[C@@]12C[C@H]1/C=C\CCCCC[C@H](CC(=O)N1CCCCC1)C(=O)N1C[C@H](Oc3cc(-c4ccccc4)nc4cc(OC)ccc34)C[C@H]1C(=O)N2` [Compound 45, (2R,6R,13aS,14aR, 16aS,Z)-ethyl 2-(7-methoxy-2-phenylquinolin-4-yloxy)-5,16-dioxo-6-(2-oxo-2-(piperidin-1-yl)ethyl)-1,2,3,5,6,7,8,9,10,11, 13a,14,14a,15,16,16a-hexadecahydrocyclopropa [e]pyrrolo[1,2-a][1,4] diazacyclopentadecine-14a-carboxylate], the EC50 (Hepatitis C virus, 72 h) was over 10000 nM.
`CCOC(=O)[C@@]12C[C@H]1/C=C\CCCCC[C@H](CC(=O)OC(C)(C)C)C(=O)N1C[C@H](Oc3cc(-c4ccccc4)nc4cc(OC)ccc34)C[C@H]1C(=O)N2` [Compound 46, (2R,6R,13aS,14aR, 16aS,Z)-ethyl 6-(2-tert-butoxy-2-oxoethyl)-2-(7-methoxy-2-phenylquinolin-4-yloxy)-5,16-dioxo-1,2,3,5,6,7,8,9,10,11, 13a,14,14a,15,16,16a-hexadecahydrocyclopropa [e]pyrrolo[1,2-a][1,4] diazacyclopentadecine-14a-carboxylate] was tested, and the EC50 (Hepatitis C virus, 72 h) was over 10000 nM.
`CCOC(=O)[C@]12C[C@@H]1/C=C\CCCCC[C@H](CC(=O)OC(C)(C)C)C(=O)N1C[C@H](Oc3cc(-c4ccccc4)nc4cc(OC)ccc34)C[C@H]1C(=O)N2` [Compound 47, (2R,6R,13aR,14aS, 16aS,Z)-ethyl 6-(2-tert-butoxy-2-oxoethyl)-2-(7-methoxy-2-phenylquinolin-4-yloxy)-5,16-dioxo-1,2,3,5,6,7,8,9,10,11, 13a,14,14a,15,16,16a-hexadecahydrocyclopropa [e]pyrrolo[1,2-a][1,4] diazacyclopentadecine-14a-carboxylate] gave an EC50 (Hepatitis C virus, 72 h) of under 1000 nM.
In the case of `COc1ccc2c(O[C@@H]3C[C@H]4C(=O)N[C@]5(C(=O)NS(=O)(=O)C6CC6)C[C@H]5/C=C\CCCCC[C@H](CC(=O)N5CCCCC5)C(=O)N4C3)cc(-c3ccccc3)nc2c1` [Compound 48, (2R,6R,13aS, 14aR,16aS,Z)-N-(cyclopropylsulfonyl)-2-(7-methoxy-2-phenylquinolin-4-yloxy)-5,16-dioxo-6-(2-oxo-2-(piperidin-1-yl)ethyl)-1,2,3,5,6,7,8,9,10,11, 13a,14,14a,15,16,16a-hexadecahydrocyclopropa [e]pyrrolo[1,2-a][1,4] diazacyclopentadecine-14a-carboxamide], the EC50 (Hepatitis C virus, 72 h) is reported as 1000 to 10000 nM.
`COc1ccc2c(O[C@@H]3C[C@H]4C(=O)N[C@@]5(C(=O)NS(=O)(=O)C6CC6)C[C@@H]5/C=C\CCCCC[C@H](CC(=O)N5CCCCC5)C(=O)N4C3)cc(-c3ccccc3)nc2c1` [Compound 49, (2R,6R,13aR, 14aS,16aS,Z)-N-(cyclopropylsulfonyl)-2-(7-methoxy-2-phenylquinolin-4-yloxy)-5,16-dioxo-6-(2-oxo-2-(piperidin-1-yl)ethyl)-1,2,3,5,6,7,8,9,10,11, 13a,14,14a,15,16,16a-hexadecahydrocyclopropa [e]pyrrolo[1,2-a][1,4] diazacyclopentadecine-14a-carboxamide] was tested, and the EC50 (Hepatitis C virus, 72 h) was 1000 to 10000 nM.
For `O=C1NC2(C(=O)NS(=O)(=O)C3CC3)CC2/C=C\CCCCC[C@H](CC(=O)N2CCCCC2)C(=O)N2C[C@H](OC(=O)N3Cc4cccc(F)c4C3)C[C@@H]12` (stereo partly drawn) [Compound 50, (2R,6R,16aS,Z)-14a-(cyclopropylsulfonyl-carbamoyl)-5,16-dioxo-6-(2-oxo-2-(piperidin-1-yl)ethyl)-1,2,3,5,6,7,8,9,10,11, 13a,14,14a,15,16,16a-hexadecahydrocyclopropa [e]pyrrolo[1,2-a][1,4] diazacyclopentadecin-2-yl 4-fluoroisoindoline-2-carboxylate], the EC50 (Hepatitis C virus, 72 h) was under 1000 nM.
With `COc1ccc2c(O[C@@H]3C[C@H]4C(=O)N[C@]5(C(=O)NS(=O)(=O)C6CC6)C[C@H]5CCCCCCC[C@H](CC(=O)N5CCCCC5)C(=O)N4C3)cc(-c3ccccc3)nc2c1` [Compound 51, (2R,6R,13aR, 14aR,16aS)-N-(cyclopropylsulfonyl)-2-(7-methoxy-2-phenylquinolin-4-yloxy)-5,16-dioxo-6-(2-oxo-2-(piperidin-1-yl)ethyl) octadecahydrocyclopropa [e]pyrrolo[1,2-a][1,4] diazacyclopentadecine-14a-carboxamide] the EC50 was under 1000 nM.
Work on `COc1ccc2c(O[C@@H]3C[C@H]4C(=O)N[C@H](C(=O)NS(=O)(=O)C5CC5)CCCCCCCCC[C@H](CC(=O)N5CCCCC5)C(=O)N4C3)cc(-c3ccccc3)nc2c1` [Compound 52, (3S,13R,17R,18aS)-N-(cyclopropylsulfonyl)-17-(7-methoxy-2-phenylquinolin-4-yloxy)-1,14-dioxo-13-(2-oxo-2-(piperidin-1-yl)ethyl) octadecahydropyrrolo [1,2-a][1,4] diazacyclohexadecine-3-carboxamide] yielded an EC50 of 1000 to 10000 nM.
With `COc1ccc2c(O[C@@H]3C[C@H]4C(=O)N[C@H](C(=O)NS(=O)(=O)C5CC5)[C@@H](C)CCCCCCC[C@H](CC(=O)N5CCCCC5)C(=O)N4C3)cc(-c3ccccc3)nc2c1` [Compound 53, (3S,4S,12R,16R,17aS)-N-(cyclopropylsulfonyl)-16-(7-methoxy-2-phenylquinolin-4-yloxy)-4-methyl-1,13-dioxo-12-(2-oxo-2-(piperidin-1-yl)ethyl)hexadecahydro-1H-pyrrolo[1,2-a][1,4] diazacyclopentadecine-3-carboxamide] the EC50 (Hepatitis C virus, 72 h) was 1000 to 10000 nM.
`COc1ccc2c(O[C@@H]3C[C@H]4C(=O)N[C@@](C)(C(=O)NS(=O)(=O)C5CC5)CCCCCCCC[C@H](CC(=O)N5CCCCC5)C(=O)N4C3)cc(-c3ccccc3)nc2c1` [Compound 54, (3R,12R,16R,17aS)-N-(cyclopropylsulfonyl)-16-(7-methoxy-2-phenylquinolin-4-yloxy)-3-methyl-1,13-dioxo-12-(2-oxo-2-(piperidin-1-yl)ethyl)hexadecahydro-1H-pyrrolo[1,2-a][1,4] diazacyclopentadecine-3-carboxamide] showed an EC50 (Hepatitis C virus, 72 h) of under 1000 nM.
